From patent publication US9145424B2, “Treatment of amyotrophic lateral sclerosis” (Northwestern University, priority 2008, dated 2015)
Where two headings read alike, the source gives them in different places.

Columns and labels:
[1] = system: proteasome activity (Ubi-YFP degradation); experiment: Proteasome activity assay (Ubi-YFP in HeLa cells); format: cell-based; details: 25 μM compound, 1 μM MG132
Method: FIG. 7. Arylsulfanyl pyrazolones prevent MG132-induced accumulation of Ubi-YFP. HeLa cells were co-transfected with Ubi-YFP and CMV-CFP plasmids, treated with 1 μM MG132 and 25 μM arylsulfanyl pyrazolones and Ubi-YFP fluorescence intensity normalized to CFP.
Since the CMB-003299 cytotoxicity of SOD1 protein aggregates may involve inhibition of proteasome activity, compounds that stimulate proteasome activity could reverse or prevent mutant SOD1-induced cytotoxicity. Thus, active compounds were tested for the ability to stimulate proteasome activity using a cell line expressing ubiquitin-conjugated YFP [Ubi-YFP 74]. In these cells, increased proteasome activity causes increased degradation of Ubi-YFP and decreased YFP fluorescence. Conversely, compounds that inhibit proteasome activity increase accumulation of Ubi-YFP and enhanced YFP fluorescence. As expected, MG132 augments YFP fluorescence intensity ˜3-fold compared to untreated controls (FIG. 7). […] Protein aggregates are present in the absence of MG132 and aggregation is suppressed following treatment with a provided compound.
HeLa cells (20,000/chamber) were plated on 8 chambered Tissue-tek coverglass pretreated with 1 mg/ml poly-D-lysine and allowed to adhere for 18 h at 37° C./5% CO2. Cells were transfected with 0.2 μg each CMV-CFP and Ubi-YFP plasmids using Lipofectamine 2000 according to manufacturer's instructions. Cells were allowed to express CFP and Ubi-YFP for 18 h followed by a 6 h incubation with test compounds (25 μM). MG132 (1 μM) was added for a final 18 h incubation and Ubi-YFP degradation assessed by fluorescence microscopy. Fluorescence intensity of CFP and YFP was calculated on a cell-by-cell basis from captured images using AxioVision software (Zeiss). YFP fluorescence was normalized to CFP fluorescence.

[2] = system: PC12 cells that express mutant G93A SOD1; experiment: Mutant SOD1-induced cytotoxicity protection assay
Method: This idea was tested by examining the sensitivity of PC12 cells to SOD1 aggregates in the presence and absence of proteasome inhibitor MG132. PC12 cells expressing no SOD1, wild type SOD1, G85R SOD1 or G93A SOD1 were grown with or without MG132 (FIG. 1).
PC12 cells expressing G93A SOD1 were treated with 100 nM MG132 with or without co-treatment with geldanamycin or radicicol.

[3] = Aqueous solubility; format: physicochemical; details: no precipitation at the highest concentration
Method: Solubility: Because compounds are stored in DMSO, it is necessary to determine aqueous solubility of initial hit compounds and their analogs. High solubility in aqueous solution is necessary for high GI absorption, bioavailability, and for chemical formulation. Compounds should be soluble in aqueous solution at >10 μg/ml. Solubility of >50 μg/ml is preferred.

[4] = In vitro plasma stability; format: in vitro ADME
Method: Plasma stability: Plasma stability of active compounds is assessed in efficacy species (mouse), toxicity species (rat, dog, monkey), and human cells.

[5] = system: Caco-2; experiment: In vitro Caco-2 permeability; format: in vitro ADME
Method: General Permeability: High membrane permeability is required for effective GI absorption and optimal bioavailability. Passive permeability is typically assessed in the PAMPA artificial membrane assay (Kansy et al., J. Med. Chem. 2002, 45(8), 1712-1722). Cell-based permeability determinations using the Caco-2 cell assay are more resource intensive but more predictive of active transport or efflux in vivo (Artursson et al., Adv. Drug. Deliv. Rev. 2001, 46(1-3), 27-43). Caco-2 assays are performed as needed during SAR development.

[6] = In vitro microsomal stability, mouse; format: in vitro ADME; details: Mouse; for microsomal CLint: mouse, liver microsomes, read-out: CLint (microsomal intrinsic clearance)
Method: (§1) Metabolism (microsome, S9 fraction, CYP450): Liver Cytochrome P450 (CYP450) enzymes are the major route for xenobiotic metabolism and microsomal and hepatocyte stability is the best predictor of pharmacokinetic half-life. Cross-species comparisons of metabolism in liver microsomes can predict potential issues with liver toxicity in humans. Selected active compounds are tested in liver microsomes from efficacy species (mouse), toxicity species (rat, dog, monkey), and humans for metabolic stability.
(§2) CMB-087229 was sent for an evaluation of its in vitro ADME properties.
(§3) Two possible amines, secondary and tertiary AAP analogues, were initially screened in the protection assay (FIG. 30) and for in vitro microsomal stability (Table 1) and Caco-2 permeability (Table 2). […] The solubilities of 2 and 3 were good in aqueous media (≧150 μM), and no precipitation occurred at the highest concentration. The in vitro plasma half-life for both compounds was >60 min.

[7] = In vitro microsomal stability, human; format: in vitro ADME; details: Human
Method: as §1, §2, §3

[8] = system: cortical neurons; experiment: Cortical neuron assay; format: cell-based
Method: Selected compounds were tested with cortical neurons—a useful preliminary step prior to the expensive and time-consuming ALS mouse model studies. Although long linker compound 24 and cyclic linker compound 27 are active in the PC12 assay, they are not active with cortical neurons. Compound 3 gave better results than the ether counterpart (1), recovering 100% neuronal activity at 10 μM concentration.

[9] = format: in vitro ADME; details: male, Sprague Dawley, rat, pH 7.4
[10] = system: PC12 cells expressing G93A SOD1; experiment: Sensitivity of PC12 cells to proteasome inhibitor, calcein-AM viability; format: cell-based; details: compared with MG132
Method: FIGS. 1A-C. […] Cell survival was determined using the viability stain calcein-AM.

[11] = Rattus norvegicus, PC-12, read-out: Best EC50, PC12 G93A SOD1 cells, MG132, calcein-AM viability

Question: What does the source list for `Cc1cc(SCc2cc(=O)[nH][nH]2)c(C)cc1Cl` [CMB-003299]?
Answer: effect on MG132-induced Ubi-YFP fluorescence [1]: strongly inhibit; EC50 [2, 11]: 0.4 µM

Question: For `O=c1cc(CNc2cc(Cl)cc(Cl)c2)[nH][nH]1` [Compound 2, 5-((3,5-Dichlorophenylamino)methyl)-1H-pyrazol-3(2H)-one, reference compound], which “solubility in aqueous media” value [3] is on record?
Answer: ≥ 150 µM

Question: And the “in vitro plasma half-life” value [4]?
Answer: > 1 h

Question: And the “Efflux ratio (B→A)/(A→B)” value [5]?
Answer: 47.1

Question: And the “Papp (A→B)” value [5]?
Answer: 0.6 10^−6 cm/s

Question: And the “Papp (B→A)” value [5]?
Answer: 28.1 10^−6 cm/s

Question: What about the T1/2 ([6]; NADPH-absent) of the same molecule?
Answer: 1.67 h

Question: And the T1/2 ([6]; NADPH-dependent)?
Answer: 0.5 h

Question: What about the microsomal CLint ([6]; NADPH-absent) of the same molecule?
Answer: 23 µL/min/mg

Question: And the microsomal CLint ([6]; NADPH-dependent)?
Answer: 78 µL/min/mg

Question: What about the T1/2 ([7]; NADPH-absent) of the same molecule?
Answer: >3 h

Question: What about the T1/2 ([7]; NADPH-dependent) of the same molecule?
Answer: 1.58 h

Question: What about the microsomal CLint ([7]; liver microsomes, NADPH-dependent, read-out: CLint (microsomal intrinsic clearance)) of the same molecule?
Answer: 24 µL/min/mg

Question: Which “solubility in aqueous media” value [3] does the source give for `CN(Cc1cc(=O)[nH][nH]1)c1cc(Cl)cc(Cl)c1` [Compound 3, 5-(((3,5-Dichlorophenyl)(methyl)amino)methyl)-1H-pyrazol-3(2H)-one] here?
Answer: ≥ 150 µM

Question: What about the “in vitro plasma half-life” value [4] of the same molecule?
Answer: > 1 h

Question: What about the neuronal activity recovered ([8]; 10 μM) of the same molecule?
Answer: 100%

Question: And the “Efflux ratio (B→A)/(A→B)” value [5]?
Answer: 3.5

Question: What about the “Papp (A→B)” value [5] of the same molecule?
Answer: 2.2 10^−6 cm/s

Question: And the “Papp (B→A)” value [5]?
Answer: 7.6 10^−6 cm/s

Question: And the T1/2 ([6]; NADPH-absent)?
Answer: >3 h

Question: What about the T1/2 ([6]; NADPH-dependent) of the same molecule?
Answer: 0.417 h

Question: What about the microsomal CLint ([6]; NADPH-dependent) of the same molecule?
Answer: 93 µL/min/mg

Question: What about the T1/2 ([7]; NADPH-absent) of the same molecule?
Answer: >3 h

Question: What about the T1/2 ([7]; NADPH-dependent) of the same molecule?
Answer: >3 h

Question: For `CN(CCCc1cc(=O)[nH][nH]1)c1cc(Cl)cc(Cl)c1` [Compound 24, 5-(3-((3,5-Dichlorophenyl)(methyl)amino)propyl)-1H-pyrazol-3(2H)-one], which “activity in the cytotoxicity protection assay, in words” value [2] is on record?
Answer: active

Question: And the “activity with cortical neurons, in words” value [8]?
Answer: not active

Question: With `O=c1[nH][nH]c2c1CN(c1cc(Cl)cc(Cl)c1)CC2` [Compound 27, 5-(3,5-Dichlorophenyl)-4,5,6,7-tetrahydro-1H-pyrazolo[4,3-c]pyridin-3(2H)-one] as the molecule, how does the “activity in the cytotoxicity protection assay, in words” value [2] read?
Answer: active

Question: What about the “activity with cortical neurons, in words” value [8] of the same molecule?
Answer: not active

Question: With `CN(Cc1cc(=O)n(C)n1C)c1cc(Cl)cc(Cl)c1` [Compound 33, 5-(((3,5-Dichlorophenyl)(methyl)amino)methyl)-1,2-dimethyl-1H-pyrazol-3(2H)-one] as the molecule, how does the “activity in the cytotoxicity protection assay, in words” value [2] read?
Answer: devoid of activity

Question: With `CN1N=C(CN(C)c2cc(Cl)cc(Cl)c2)C(C)(C)C1=O` [Compound 34, 3-(((3,5-Dichlorophenyl)(methyl)amino)methyl)-1,4,4-trimethyl-1H-pyrazol-5(4H)-one] as the molecule, how does the “activity in the cytotoxicity protection assay, in words” value [2] read?
Answer: devoid of activity

Question: For `Cc1cc(-c2ccccc2)nnc1NCCN1CCOCC1` [Mina, Minaprine, reference compound], which “% Mean ± S.E.” value ([9]; 0 min, 5 μM) is on record?
Answer: 100 ± 11.5%

Question: And the “RR Mean (Response Ratio)” value ([9]; 0 min, 5 μM)?
Answer: 0.711

Question: And the “% Mean ± S.E.” value ([9]; 0 min, 15 μM)?
Answer: 100 ± 7.11%

Question: What about the “RR Mean (Response Ratio)” value ([9]; 0 min, 15 μM) of the same molecule?
Answer: 22.88

Question: And the “% Mean ± S.E.” value ([9]; 20 min, 15 μM)?
Answer: 59.2 ± 14.9%

Question: And the “RR Mean (Response Ratio)” value ([9]; 20 min, 15 μM)?
Answer: 13.54

Question: And the “% Mean ± S.E.” value ([9]; 40 min, 5 μM)?
Answer: 45.2 ± 8.1^ %

Question: And the “RR Mean (Response Ratio)” value ([9]; 40 min, 5 μM)?
Answer: 0.321

Question: Which “% Mean ± S.E.” value ([9]; 0 min, 15 μM) does the source give for `O=c1cc(CS(=O)(=O)c2ccc(Cl)cc2)[nH][nH]1` [TC-II-70] here?
Answer: 100 ± 12.6%

Question: And the “RR Mean (Response Ratio)” value ([9]; 0 min, 15 μM)?
Answer: 0.237

Question: What about the “% Mean ± S.E.” value ([9]; 20 min, 15 μM) of the same molecule?
Answer: 109 ± 13.3%

Question: What about the “RR Mean (Response Ratio)” value ([9]; 20 min, 15 μM) of the same molecule?
Answer: 0.261

Question: What about the “% Mean ± S.E.” value ([9]; 40 min, 15 μM) of the same molecule?
Answer: 84.8 ± 21.8%

Question: What about the “RR Mean (Response Ratio)” value ([9]; 40 min, 15 μM) of the same molecule?
Answer: 0.201

Question: For `O=c1cc(CSCc2ccc(Cl)cc2)[nH][nH]1` [TC-II-123], which EC50 [2, 11] is on record?
Answer: 4.2 µM

Question: Which EC50 ([2]; read-out: Best EC50, PC12 G93A SOD1 cells, MG132, calcein-AM viability) does the source give for `O=c1cc(CSCCOc2ccccc2)[nH][nH]1` [TC-II-140] here?
Answer: 6.2 µM

Question: With `CC(=O)CC(c1ccccc1)c1c(O)c2ccccc2oc1=O` (centres unmarked) [War, warfarin, reference compound] as the molecule, how does the “% Mean ± S.E.” value ([9]; 0 min, 15 μM) read?
Answer: 100 ± 7.75%

Question: And the “% Mean ± S.E.” value ([9]; 60 min, 15 μM)?
Answer: 96.1 ± 7.66%

Question: For `CC(C)C[C@H](NC(=O)[C@H](Cc1ccccc1)NC(=O)c1cnccn1)B(O)O` [bortezomib], which “sensitivity to proteasome inhibition, in words” value [10] is on record?
Answer: Qualitatively similar results
